# Data published in patent US12723024B2 (priority 2021, dated 2026).
# Like-named read-outs stand apart in the source and are kept apart here.
# How the values were obtained:
# [1] = Salt screening (slurry crystallization); assay type: physicochemical; design: key to Salt screening result: (+) shows that a crystalline salt was formed; (−) physical mixtures; conditions: for Polymorph obtained in salt screening: XRPD; for Salt screening result: slurry 50° C. then 25° C.
# Protocol: About 45 mg was added to a suitable solvent and different equivalents of acids were added under stirring at 50° C. for about 2 hours and then at 25° C. for at least 32 hours. Ethanol, acetone, and ACN were used as screening solvents. When no precipitation was obtained or only a few solids were obtained, the solutions were placed at 5° C. for crystallization.
# (§1) Obtained suspensions were taken out and centrifuged. Solids obtained was analysed by XRPD. Salts with high or medium crystallinity were further characterized (see Table 5).
# [2] = Thermogravimetric analysis (TGA) weight loss; assay type: physicochemical; conditions: salt screening sample, at the temperature given (80-200° C.)
# Text: (§2) According to the salt screening results (see Table 4), totally 19 potential salt hits were identified. All the potential salt hits were further investigated by Differential Scanning Calorimetry (DSC), Thermogravimetric analysis (TGA), H-NMR, Ion chromatography (IC), Karl Fischer titration (KF), and Polarized Light Microscopy (PLM) to confirm their identity and evaluate their physicochemical properties as shown in Table 5 below.
# [3] = Crystallinity by XRPD; assay type: physicochemical; conditions: large scale batch
# Protocol: as §1, §2
# [4] = ground manually with mortar and pestle for 5 min; XRPD
# Protocol: Potential change of polymorph form and degree of crystallinity were evaluated by XRPD.
# [5] = Thermogravimetric analysis (TGA) weight loss; assay type: physicochemical; conditions: large scale batch, at the temperature printed in the same cell (100-170° C.)
# [6] = Hygroscopicity (water uptake) of salt hits; assay type: physicochemical; conditions: salt screening sample
# Text: as §2
# [7] = Dynamic vapor sorption (DVS) test at 25° C.; assay type: physicochemical; conditions: for Desorp. (%) / Sorp. (%): cycle 40-0-95-0-40% RH
# [8] = wetted with water or ethanol, ground, dried 10 min; XRPD
# Protocol: Wet samples were ground gently with a mortar and pestle. Post granulation samples were dried under ambient condition for 10 min. Potential change of polymorph form and degree of crystallinity were evaluated by XRPD.
# [9] = listed as succinate salt Polymorph A
compound,measurement,setting,value
"COc1cc(C(F)(F)F)c(OC)cc1[C@@H]1CCCNC1.O=C(O)CCC(=O)O [Succinate salt Polymorph A (anhydrate), succinic acid salt of (S)-3-(2,5-dimethoxy-4-(trifluoromethyl)phenyl)piperidine]",Polymorph obtained in salt screening,[1]; ACN,Polymorph A
same,Salt screening result,[1]; ACN,+
same,Polymorph obtained in salt screening,[1]; Acetone,Polymorph A
same,Salt screening result,[1]; Acetone,+
same,Polymorph obtained in salt screening,[1]; EtOH,Polymorph A
same,Salt screening result,[1]; EtOH,+
same,Weight loss (%),[2],2.1%
same,Crystallinity,[3],High
same,Crystallinity,[3]; [9],high crystallinity
same,Change of polymorph form and degree of crystallinity,[4],No change in polymorph form and crystallinity was observed
same,Weight loss (%) at Temperature (° C.),[5],0.2 at %
same,Weight loss (%) at Temperature (° C.),[5]; [9],about 0.2%
same,Hygroscopicity (water uptake % w/w),[6],(~0.7%) % w/w
same,Desorp. (%),"[7]; 0% RH, 25° C.",0.00%
same,Sorp. (%),"[7]; 0% RH, 25° C.",0.06%
same,Desorp. (%),"[7]; 10% RH, 25° C.",0.01%
same,Sorp. (%),"[7]; 10% RH, 25° C.",0.06%
same,Desorp. (%),"[7]; 20% RH, 25° C.",0.01%
same,Sorp. (%),"[7]; 20% RH, 25° C.",0.07%
same,Water absorbed from 40% RH to 95% RH,[7]; 25° C.,about 0.21%
same,Desorp. (%),"[7]; 30% RH, 25° C.",0.02%
same,Sorp. (%),"[7]; 30% RH, 25° C.",0.07%
same,Desorp. (%),"[7]; 40% RH, 25° C.",0.02%
same,Sorp. (%),"[7]; 40% RH, 25° C.",0.07%
same,Desorp. (%),"[7]; 50% RH, 25° C.",0.02%
same,Sorp. (%),"[7]; 50% RH, 25° C.",0.09%
same,Desorp. (%),"[7]; 60% RH, 25° C.",0.03%
same,Sorp. (%),"[7]; 60% RH, 25° C.",0.08%
same,Desorp. (%),"[7]; 70% RH, 25° C.",0.10%
same,Sorp. (%),"[7]; 70% RH, 25° C.",0.09%
same,Desorp. (%),"[7]; 80% RH, 25° C.",0.11%
same,Sorp. (%),"[7]; 80% RH, 25° C.",0.10%
same,Desorp. (%),"[7]; 90% RH, 25° C.",0.16%
same,Sorp. (%),"[7]; 90% RH, 25° C.",0.14%
same,Desorp. (%),"[7]; 95% RH, 25° C.",0.29%
same,Sorp. (%),"[7]; 95% RH, 25° C.",0.29%
same,XRPD after DVS test,[7]; DVS at 25° C.,No form changes
same,Hygroscopicity,"[7]; DVS at 25° C., grade in words",non-hygroscopic
same,Change of polymorph form and degree of crystallinity,[8],No change in polymorph form and crystallinity was observed
